{"source": "patent US20050118287A1", "about": "“Use of a vanilloid as an anti-snoring element” (LMD, priority 2002, published 2005)", "system": "snoring", "experiment": "Activity of the shogaol on snoring in a panel of men and women", "format": "in vivo", "conditions": "daily doses corresponding to 20 mg of shogaol", "procedure": "Daily doses corresponding to 20 mg of shogaol taken in the form of an extract according to example 1 or 2 or of pure shogaol according to example 3 were administered to a panel of men and women. The effects manifest themselves after 48 hours of treatment and persist for 48 hours after stopping the latter. […] Without being bound by theory, it appears that the effect of this molecule and of other vanilloids should be linked to their involvement in emission by certain nociceptive neurons of a neurotransmitter, substance P."}
{"substance": "shogaol", "values": [{"measurement": "persistence of the effects after stopping treatment", "result": 48, "unit": "h"}, {"measurement": "time of treatment after which the effects manifest themselves", "result": 48, "unit": "h"}, {"measurement": "effect on snoring in the user", "setting": "taken as extract according to example 1 or 2 or pure shogaol according to example 3", "result": "considerably reduces snoring"}]}
